Reference: US20210214354A1, “IMIDAZOQUINOLINE COMPOUNDS AND USES THEREOF” (Birdie Biopharmaceuticals, Inc., priority 2018, published 2021)
Read-outs that look alike come from different tables or passages of the source.

What was measured:
[1] = TLR7/8 agonist PK study in SD rats (i.v.); conditions: 0.08 mg/kg, plasma; for MTRinf: SD rats, i.v.; for AUC(0-inf) / AUC(0-t) / C0 / MRT last / Vd / clearance / half-life: both, Sprague-Dawley (SD), rat, iv
Protocol: (§3) SPF SD rats were purchased from BioLASCO Taiwan Co. Ltd. Animals were randomly assigned to five groups with 3 males and 3 females in each group before dosing. The body weight variation of animals used were in an interval within ±20 percent of the mean weight for each gender.
(§4) Blood samples (200-350 μL/time point) were obtained through tail vein at pre-dose and 2 min, 5 min, 15 min, 30 min, 1 hr, 2 hr, 4 hr, 6 hr, 8 hr, 12 hr and 24 hr post dosing. The blood samples were collected into tubes containing K2EDTA and maintained on ice no more than 30 minutes, then centrifuged (1500-1750 xg, 15 min, 2-8° C.) for plasma harvest.
(§5) The study samples were prepared and analyzed in parallel using liquid chromatography-tandem mass spectrometry. In pharmacokinetics evaluation following the determined concentrations in rat plasma, pharmacokinetic parameters were calculated using WinNonlin (Pharsight Corporation, version 6.3) with non-compartmental methods.

[2] = both, Sprague-Dawley (SD), rat, in vivo, iv, 0.08 mg/kg
Protocol: as §3, §4, §5

in vivo = conditions: both, Sprague-Dawley (SD), rat, iv, 0.08 mg/kg
Protocol: as §3, §4, §5

hTLR7 = target: T1, hTLR7 (Homo sapiens, UniProt Q9NYK1); experiment: TLR7/8 agonist potency assay in HEK-Blue hTLR7 cells (SEAP reporter); type: cell-based; conditions: about 16 hrs incubation, SEAP at 635 nm; for EC50: read-out: TLR7 Agonistic EC50 (converted)
T1 construct: expressed in transfected cells; host or cells: HEK-Blue hTLR7 cells (HEK293-derived SEAP reporter line; own knowledge: commercial line stably transfected with the human TLR7 gene)
T1 sequence (Q9NYK1 27-1049): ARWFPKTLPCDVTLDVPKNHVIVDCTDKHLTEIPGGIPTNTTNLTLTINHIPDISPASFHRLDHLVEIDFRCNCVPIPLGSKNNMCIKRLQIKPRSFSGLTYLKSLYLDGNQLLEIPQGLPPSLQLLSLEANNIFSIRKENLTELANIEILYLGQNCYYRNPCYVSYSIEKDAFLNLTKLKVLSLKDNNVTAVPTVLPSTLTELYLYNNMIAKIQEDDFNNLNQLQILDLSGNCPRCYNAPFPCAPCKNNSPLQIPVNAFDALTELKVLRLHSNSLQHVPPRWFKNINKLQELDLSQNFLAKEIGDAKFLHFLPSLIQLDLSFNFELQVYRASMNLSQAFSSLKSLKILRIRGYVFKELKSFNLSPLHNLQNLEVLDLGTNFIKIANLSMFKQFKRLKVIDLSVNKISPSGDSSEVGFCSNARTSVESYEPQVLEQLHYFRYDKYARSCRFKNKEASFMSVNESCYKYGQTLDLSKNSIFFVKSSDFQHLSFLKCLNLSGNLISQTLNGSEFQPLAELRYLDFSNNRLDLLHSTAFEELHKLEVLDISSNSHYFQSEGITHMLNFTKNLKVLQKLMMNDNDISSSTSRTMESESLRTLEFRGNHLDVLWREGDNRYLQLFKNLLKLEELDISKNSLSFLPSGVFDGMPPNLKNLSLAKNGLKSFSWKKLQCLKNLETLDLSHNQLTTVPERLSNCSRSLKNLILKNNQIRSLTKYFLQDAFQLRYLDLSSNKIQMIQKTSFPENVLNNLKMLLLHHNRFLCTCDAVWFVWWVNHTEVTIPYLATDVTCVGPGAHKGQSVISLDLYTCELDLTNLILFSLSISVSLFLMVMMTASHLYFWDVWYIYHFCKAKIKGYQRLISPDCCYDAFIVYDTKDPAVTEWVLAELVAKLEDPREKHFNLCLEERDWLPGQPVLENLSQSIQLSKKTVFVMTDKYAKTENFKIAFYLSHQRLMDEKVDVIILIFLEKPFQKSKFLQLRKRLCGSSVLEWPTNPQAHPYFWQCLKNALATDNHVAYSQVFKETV
Protocol: (§1) HEK-Blue TLR7 cells can serve to measure the bioactivity of TLR7 through the secretion of embryonic alkalinephosphatase (SEAP) upon NF-κB activation following TLR7 stimulation. Water was used as negative control. After about 16 hrs incubation at 37° C. in 5% CO2, the SEAP was determined by using a spectrophotometer at 635 nm.
(§2) The dose-response curves were fit with four parameter logistic curve (SigmaPlot, version 9.0).

hTLR8 = target: T2, hTLR8 (Homo sapiens, UniProt Q9NR97); experiment: TLR7/8 agonist potency assay in HEK-Blue hTLR8 cells (SEAP reporter); type: cell-based; conditions: about 16 hrs incubation, SEAP at 635 nm, read-out: TLR8 Agonistic EC50 (converted)
T2 construct: expressed in transfected cells; host or cells: HEK-Blue hTLR8 cells (HEK293-derived SEAP reporter line; own knowledge: commercial line stably transfected with the human TLR8 gene)
T2 sequence (Q9NR97 27-1041): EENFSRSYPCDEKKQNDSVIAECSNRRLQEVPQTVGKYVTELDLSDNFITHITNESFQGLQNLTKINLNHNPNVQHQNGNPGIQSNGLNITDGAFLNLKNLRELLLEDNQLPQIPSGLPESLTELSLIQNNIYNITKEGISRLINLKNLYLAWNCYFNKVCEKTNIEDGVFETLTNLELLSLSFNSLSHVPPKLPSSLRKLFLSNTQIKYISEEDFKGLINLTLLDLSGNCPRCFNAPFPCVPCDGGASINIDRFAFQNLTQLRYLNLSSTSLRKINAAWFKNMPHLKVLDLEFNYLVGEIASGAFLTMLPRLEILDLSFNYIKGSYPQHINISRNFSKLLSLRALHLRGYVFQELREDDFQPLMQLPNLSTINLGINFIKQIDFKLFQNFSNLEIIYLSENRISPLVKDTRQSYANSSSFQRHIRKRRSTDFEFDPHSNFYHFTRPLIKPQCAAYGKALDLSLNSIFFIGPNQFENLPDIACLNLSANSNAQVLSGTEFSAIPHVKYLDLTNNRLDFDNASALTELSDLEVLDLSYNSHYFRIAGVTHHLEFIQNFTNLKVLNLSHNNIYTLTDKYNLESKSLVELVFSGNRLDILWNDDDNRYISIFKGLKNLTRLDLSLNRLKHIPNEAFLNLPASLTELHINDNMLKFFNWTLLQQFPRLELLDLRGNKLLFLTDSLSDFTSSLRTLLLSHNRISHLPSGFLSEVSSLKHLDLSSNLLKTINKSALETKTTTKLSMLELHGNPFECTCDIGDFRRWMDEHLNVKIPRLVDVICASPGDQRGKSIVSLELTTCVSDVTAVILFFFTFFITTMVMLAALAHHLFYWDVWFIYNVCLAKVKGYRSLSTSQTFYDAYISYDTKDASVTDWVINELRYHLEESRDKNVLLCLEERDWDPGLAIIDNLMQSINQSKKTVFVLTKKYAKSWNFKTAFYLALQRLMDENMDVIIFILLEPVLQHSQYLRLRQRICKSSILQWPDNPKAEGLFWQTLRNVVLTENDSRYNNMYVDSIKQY
Protocol: as §1, with “HEK-Blue hTLR8” for “HEK-Blue TLR7”, “of TLR8” for “of TLR7”, “embryonic alkaline phosphatase” for “embryonic alkalinephosphatase”, “following TLR8” for “following TLR7”
as §2

| MTRinf [1] [h] | AUC(0-inf) [1] [ng·h/mL] | AUC(0-t) [1] [ng·h/mL] | C0 [1] [ng/mL] | MRT last [1] [h] | Vd [1] [L/kg] | clearance [1] [mL/min/kg] | half-life [1] [h] | EC50 (hTLR7) [nM] | EC50 (hTLR8) [nM] | Structure (SMILES) | also measured |
| --- | --- | --- | --- | --- | --- | --- | --- | --- | --- | --- | --- |
| 3.87 ± 1.20 | 66.2 ± 4.81 | 62.5 ± 4.49 | 258 ± 47.6 | 1.87 ± 0.16 | 4.67 | 21.6 | 8.46 ± 1.72 | – | – | CCSCc1nc2c(N)nc3ccccc3c2n1CC(C)(C)O [Compound 4] | – |
| – | – | – | – | – | – | – | – | – | – | CCOCc1nc2c(N)nc3ccccc3c2n1CC(C)(C)O [Resiquimod] | MTRinf [2]: 3.87 ± 1.20 h; AUC(0-inf) (in vivo): 66.2 ± 4.81 ng·h/mL; AUC(0-t) (in vivo): 62.5 ± 4.49 ng·h/mL; C0 (in vivo): 258 ± 47.6 ng/mL; MRT last (in vivo): 1.87 ± 0.16 h; Vd (in vivo): 4.67 L/kg; clearance (in vivo): 21.6 mL/min/kg; half-life (in vivo): 8.46 ± 1.72 h |
| – | – | – | – | – | – | – | – | 98.3 | 1600 | CC(C)(O)Cn1c(COCC(F)(F)F)nc2c(N)nc3ccccc3c21 [Compound 2] | – |
| – | – | – | – | – | – | – | – | – | – | CCCCNc1nc(N)c2[nH]c(=O)n(Cc3ccc(C(=O)NCC(=O)O)cc3)c2n1 [CL264, reference compound] | TLR7 Agonistic EC50 (hTLR7): 0.2602 ± 0.0124 µg/mL |
| 1.71 ± 0.22 | 82.8 ± 8.29 | 81.6 ± 8.49 | 224 ± 53.9 | 1.28 ± 0.19 | 1.82 | 17.1 | 6.46 ± 1.01 | – | – | CCS(=O)(=O)Cc1nc2c(N)nc3ccccc3c2n1CC(C)(C)O [Compound 6] | – |
| 4.90 ± 0.87 | 124 ± 9.96 | 118 ± 8.92 | 237 ± 44.2 | 3.15 ± 0.18 | 3.13 | 11.9 | 7.53 ± 1.03 | 124 | 1580 | CC(C)(O)Cn1c(COC2CC2)nc2c(N)nc3ccccc3c21 [Compound 3] | – |
